# Measurements published in US8415299B2, “Methods for improved avian performance” (priority 2004, dated 2013).
# Read-outs that look alike come from different tables or passages of the source. Marks after values point to notes of the source that are not given here.
# How the values were obtained:
# [1] = test system: Cobb broiler breeder hens and roosters; type: in vivo
# Description: Molting Cobb Broiler Breeder Hens and Roosters with Dietary Thyroxine.
# [2] = test system: Bovans caged laying hens; experiment: Experiment 6: molting of caged laying hens with dietary L-thyroxine or thyroactive iodinated casein; type: in vivo, chickens; conditions: for 9 Jun. 2005 (9th d Trt) Body Wt Change: 10 hours of light daily; for 25 May 2005 Initial Body Wt: before 7-day pretest
# Description: Experiment 6. Molting of Caged Laying with Dietary L-Thyroxine or Thyroactive Iodinated Casein
# In Experiment 6, a conventional feed withdrawal molting procedure was compared with 5 dietary thyroxine treatments. Body weight loss after 9 days was greater, days to 0% egg production (9 days) shorter, ovary plus oviduct weight numerically lighter on day 9 of treatment, but eggs collected on day 4 of treatment had thinner shells, in the feed withdrawal group.
# [3] = test system: turkey breeder hens; experiment: Experiment 7: molting of turkey breeder hens with dietary L-thyroxine, porcine thyroid powder or thyroactive iodinated casein, 10 days; type: in vivo; conditions: 10, 20, or 40 mg T4/kg diet
# Description: Experiment 7. Molting of Turkey Breeder Hens with Dietary L-Thyroxine, PorcineThyroid Powder, or Thyroactive Iodinated Casein. Turkey breeder hens were molted with various dietary thyroxine treatments at Diamond K Research, […]. (Jun. 20-Jul. 1, 2005).
# [4] = test system: 66-week-old caged laying hens; conditions: cited from earlier work
# [5] = test system: laying hens; conditions: cited from earlier work
smiles,measurement,setting,value
"N[C@@H](Cc1cc(I)c(Oc2cc(I)c(O)c(I)c2)c(I)c1)C(=O)O [L-thyroxine, 3,5,3′,5′-tetraiodothyronine]",Tolerance in roosters,"[1]; 25 or 40 mg/kg diet, roosters began to stroke blood from the nostrils",males were unable to tolerate these levels of L-thyroxine
same,# Eggs per pen,"[1]; 25 ppm feed from 22-Sep, pen 50, 1-Nov",0
same,# Eggs per pen,"[1]; 25 ppm feed from 22-Sep, pen 50, 1-Oct",3
same,# Eggs per pen,"[1]; 25 ppm feed from 22-Sep, pen 50, 2-Nov",0
same,# Eggs per pen,"[1]; 25 ppm feed from 22-Sep, pen 50, 2-Oct",1
same,# Eggs per pen,"[1]; 25 ppm feed from 22-Sep, pen 50, 3-Nov",0
same,# Eggs per pen,"[1]; 25 ppm feed from 22-Sep, pen 50, 3-Oct",0
same,# Eggs per pen,"[1]; 25 ppm feed from 22-Sep, pen 50, 4-Nov",0
same,# Eggs per pen,"[1]; 25 ppm feed from 22-Sep, pen 50, 4-Oct",1
same,# Eggs per pen,"[1]; 25 ppm feed from 22-Sep, pen 50, 5-Oct",1
same,# Eggs per pen,"[1]; 25 ppm feed from 22-Sep, pen 50, 6-Oct",0
same,# Eggs per pen,"[1]; 25 ppm feed from 22-Sep, pen 50, 7-Oct",0
same,# Eggs per pen,"[1]; 25 ppm feed from 22-Sep, pen 50, 8-Oct",3
same,# Eggs per pen,"[1]; 25 ppm feed from 22-Sep, pen 50, 9-Oct",1
same,# Eggs per pen,"[1]; 25 ppm feed from 22-Sep, pen 50, 10-Oct",0
same,# Eggs per pen,"[1]; 25 ppm feed from 22-Sep, pen 50, 11-Oct",0
same,# Eggs per pen,"[1]; 25 ppm feed from 22-Sep, pen 50, 12-Oct",0
same,# Eggs per pen,"[1]; 25 ppm feed from 22-Sep, pen 50, 13-Oct",0
same,# Eggs per pen,"[1]; 25 ppm feed from 22-Sep, pen 50, 14-Oct",0
same,# Eggs per pen,"[1]; 25 ppm feed from 22-Sep, pen 50, 15-Oct",0
same,# Eggs per pen,"[1]; 25 ppm feed from 22-Sep, pen 50, 16-Oct",0
same,# Eggs per pen,"[1]; 25 ppm feed from 22-Sep, pen 50, 16-Sep",15
same,# Eggs per pen,"[1]; 25 ppm feed from 22-Sep, pen 50, 17-Oct",0
same,# Eggs per pen,"[1]; 25 ppm feed from 22-Sep, pen 50, 17-Sep",14
same,# Eggs per pen,"[1]; 25 ppm feed from 22-Sep, pen 50, 18-Oct",0
same,# Eggs per pen,"[1]; 25 ppm feed from 22-Sep, pen 50, 18-Sep",11
same,# Eggs per pen,"[1]; 25 ppm feed from 22-Sep, pen 50, 19-Oct",0
same,# Eggs per pen,"[1]; 25 ppm feed from 22-Sep, pen 50, 19-Sep",17
same,# Eggs per pen,"[1]; 25 ppm feed from 22-Sep, pen 50, 20-Oct",0
same,# Eggs per pen,"[1]; 25 ppm feed from 22-Sep, pen 50, 20-Sep",15
same,# Eggs per pen,"[1]; 25 ppm feed from 22-Sep, pen 50, 21-Oct",0
same,# Eggs per pen,"[1]; 25 ppm feed from 22-Sep, pen 50, 21-Sep",14
same,# Eggs per pen,"[1]; 25 ppm feed from 22-Sep, pen 50, 22-Oct",0
same,# Eggs per pen,"[1]; 25 ppm feed from 22-Sep, pen 50, 22-Sep",14
same,# Eggs per pen,"[1]; 25 ppm feed from 22-Sep, pen 50, 23-Oct",0
same,# Eggs per pen,"[1]; 25 ppm feed from 22-Sep, pen 50, 23-Sep",19
same,# Eggs per pen,"[1]; 25 ppm feed from 22-Sep, pen 50, 24-Oct",0
same,# Eggs per pen,"[1]; 25 ppm feed from 22-Sep, pen 50, 24-Sep",7
same,# Eggs per pen,"[1]; 25 ppm feed from 22-Sep, pen 50, 25-Oct",0
same,# Eggs per pen,"[1]; 25 ppm feed from 22-Sep, pen 50, 25-Sep",8
same,# Eggs per pen,"[1]; 25 ppm feed from 22-Sep, pen 50, 26-Oct",0
same,# Eggs per pen,"[1]; 25 ppm feed from 22-Sep, pen 50, 26-Sep",9
same,# Eggs per pen,"[1]; 25 ppm feed from 22-Sep, pen 50, 27-Oct",0
same,# Eggs per pen,"[1]; 25 ppm feed from 22-Sep, pen 50, 27-Sep",4
same,# Eggs per pen,"[1]; 25 ppm feed from 22-Sep, pen 50, 28-Oct",0
same,# Eggs per pen,"[1]; 25 ppm feed from 22-Sep, pen 50, 28-Sep",3
same,# Eggs per pen,"[1]; 25 ppm feed from 22-Sep, pen 50, 29-Oct",0
same,# Eggs per pen,"[1]; 25 ppm feed from 22-Sep, pen 50, 29-Sep",1
same,# Eggs per pen,"[1]; 25 ppm feed from 22-Sep, pen 50, 30-Oct",0
same,# Eggs per pen,"[1]; 25 ppm feed from 22-Sep, pen 50, 30-Sep",0
same,# Eggs per pen,"[1]; 25 ppm feed from 22-Sep, pen 50, 31-Oct",0
same,# Eggs per pen,"[1]; 40 ppm feed from 22-Sep, pen 51, 1-Nov",1
same,# Eggs per pen,"[1]; 40 ppm feed from 22-Sep, pen 51, 1-Oct",1
same,# Eggs per pen,"[1]; 40 ppm feed from 22-Sep, pen 51, 2-Nov",3
same,# Eggs per pen,"[1]; 40 ppm feed from 22-Sep, pen 51, 2-Oct",0
same,# Eggs per pen,"[1]; 40 ppm feed from 22-Sep, pen 51, 3-Nov",3
same,# Eggs per pen,"[1]; 40 ppm feed from 22-Sep, pen 51, 3-Oct",0
same,# Eggs per pen,"[1]; 40 ppm feed from 22-Sep, pen 51, 4-Nov",5
same,# Eggs per pen,"[1]; 40 ppm feed from 22-Sep, pen 51, 4-Oct",0
same,# Eggs per pen,"[1]; 40 ppm feed from 22-Sep, pen 51, 5-Oct",0
same,# Eggs per pen,"[1]; 40 ppm feed from 22-Sep, pen 51, 6-Oct",0
same,# Eggs per pen,"[1]; 40 ppm feed from 22-Sep, pen 51, 7-Oct",0
same,# Eggs per pen,"[1]; 40 ppm feed from 22-Sep, pen 51, 8-Oct",0
same,# Eggs per pen,"[1]; 40 ppm feed from 22-Sep, pen 51, 9-Oct",0
same,# Eggs per pen,"[1]; 40 ppm feed from 22-Sep, pen 51, 10-Oct",0
same,# Eggs per pen,"[1]; 40 ppm feed from 22-Sep, pen 51, 11-Oct",0
same,# Eggs per pen,"[1]; 40 ppm feed from 22-Sep, pen 51, 12-Oct",0
same,# Eggs per pen,"[1]; 40 ppm feed from 22-Sep, pen 51, 13-Oct",0
same,# Eggs per pen,"[1]; 40 ppm feed from 22-Sep, pen 51, 14-Oct",0
same,# Eggs per pen,"[1]; 40 ppm feed from 22-Sep, pen 51, 15-Oct",0
same,# Eggs per pen,"[1]; 40 ppm feed from 22-Sep, pen 51, 16-Oct",0
same,# Eggs per pen,"[1]; 40 ppm feed from 22-Sep, pen 51, 16-Sep",12
same,# Eggs per pen,"[1]; 40 ppm feed from 22-Sep, pen 51, 17-Oct",0
same,# Eggs per pen,"[1]; 40 ppm feed from 22-Sep, pen 51, 17-Sep",19
same,# Eggs per pen,"[1]; 40 ppm feed from 22-Sep, pen 51, 18-Oct",0
same,# Eggs per pen,"[1]; 40 ppm feed from 22-Sep, pen 51, 18-Sep",19
same,# Eggs per pen,"[1]; 40 ppm feed from 22-Sep, pen 51, 19-Oct",0
same,# Eggs per pen,"[1]; 40 ppm feed from 22-Sep, pen 51, 19-Sep",20
same,# Eggs per pen,"[1]; 40 ppm feed from 22-Sep, pen 51, 20-Oct",0
same,# Eggs per pen,"[1]; 40 ppm feed from 22-Sep, pen 51, 20-Sep",16
same,# Eggs per pen,"[1]; 40 ppm feed from 22-Sep, pen 51, 21-Oct",0
same,# Eggs per pen,"[1]; 40 ppm feed from 22-Sep, pen 51, 21-Sep",16
same,# Eggs per pen,"[1]; 40 ppm feed from 22-Sep, pen 51, 22-Oct",0
same,# Eggs per pen,"[1]; 40 ppm feed from 22-Sep, pen 51, 22-Sep",18
same,# Eggs per pen,"[1]; 40 ppm feed from 22-Sep, pen 51, 23-Oct",0
same,# Eggs per pen,"[1]; 40 ppm feed from 22-Sep, pen 51, 23-Sep",15
same,# Eggs per pen,"[1]; 40 ppm feed from 22-Sep, pen 51, 24-Oct",0
same,# Eggs per pen,"[1]; 40 ppm feed from 22-Sep, pen 51, 24-Sep",10
same,# Eggs per pen,"[1]; 40 ppm feed from 22-Sep, pen 51, 25-Oct",0
same,# Eggs per pen,"[1]; 40 ppm feed from 22-Sep, pen 51, 25-Sep",11
same,# Eggs per pen,"[1]; 40 ppm feed from 22-Sep, pen 51, 26-Oct",0
same,# Eggs per pen,"[1]; 40 ppm feed from 22-Sep, pen 51, 26-Sep",6
same,# Eggs per pen,"[1]; 40 ppm feed from 22-Sep, pen 51, 27-Oct",0
same,# Eggs per pen,"[1]; 40 ppm feed from 22-Sep, pen 51, 27-Sep",5
same,# Eggs per pen,"[1]; 40 ppm feed from 22-Sep, pen 51, 28-Oct",0
same,# Eggs per pen,"[1]; 40 ppm feed from 22-Sep, pen 51, 28-Sep",0
same,# Eggs per pen,"[1]; 40 ppm feed from 22-Sep, pen 51, 29-Oct",3
same,# Eggs per pen,"[1]; 40 ppm feed from 22-Sep, pen 51, 29-Sep",1
same,# Eggs per pen,"[1]; 40 ppm feed from 22-Sep, pen 51, 30-Oct",3
same,# Eggs per pen,"[1]; 40 ppm feed from 22-Sep, pen 51, 30-Sep",0
same,# Eggs per pen,"[1]; 40 ppm feed from 22-Sep, pen 51, 31-Oct",3
same,"Time to reduced feed intake, ceased egg production and start of feather molt",[1]; Cobb broiler breeder hens on thyroxine treated feed (25 or 40 mg/kg),15 to 17 days
same,9 Jun. 2005 (9th d Trt) Body Wt Change,[2]; 20 mg T4/kg diet,−0.50^b lb
same,25 May 2005 Initial Body Wt,[2]; 20 mg T4/kg diet,3.49 lb
same,Days to 0% egg production,[2]; 40 mg T4/kg diet,11 days
same,Weight loss,[2]; 40 mg T4/kg diet,−0.54 lb
same,9 Jun. 2005 (9th d Trt) Body Wt Change,[2]; 40 mg T4/kg diet,−0.60^b lb
same,25 May 2005 Initial Body Wt,[2]; 40 mg T4/kg diet,3.57 lb
same,Effectiveness at regressing reproductive tracts,[3],not as effective as porcine thyroid powder
same,Days to target body weight (30% body weight loss),[4]; 10 mg/kg feed in grape pomace diet after 1-day feed withdrawal,16 days
same,Days to target body weight (30% body weight loss),"[4]; corn diet with or without 10 mg/kg, 1-day fast or no fast",28 days
same,Effect on egg production and molting,[5]; 0.2 mg per hen for 21 consecutive days (Szelenyi and Peczely 1988),diminished egg production but did not result in molting
same,Mortality,"[5]; injected, e.g. 243 micrograms/100 g body weight, White Leghorn hens 7 months of age (Miller et al. 1962)",47%
